Test results from patent publication USRE47689E1, “Compounds for treating spinal muscular atrophy” (PTC Therapeutics, Inc., priority 2011, dated 2019).
Read-outs that look alike come from different tables or passages of the source.

Legend:
[1] = tested on: SMN2 minigene (full length SMN2 minigene mRNA containing SMN2 exon 7); experiment: SMN2 minigene mRNA splicing RT-qPCR assay in cultured cells; type: cell-based, human; conditions: Homo sapiens, HEK293-H, read-out: EC1.5x for production of full length SMN2 mRNA
In short: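 HEK293H cells stably carrying the SMN2-A minigene treated 24 h at 37° C with compound (DMSO, 200× stock), then lysed. Multiplex RT-qPCR (SMN primers 0.4 μM final; 40 cycles) measures full-length exon 7-containing minigene mRNA, normalized to GAPDH and to vehicle; EC1.5x derived and binned by stars.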

Smn protein = Smn protein assay in cultured cells (SMN HTRF); type: cell-based, human; conditions: 48 hours; for maximum fold (Fold) increase of Smn protein: SMA patient fibroblast cells, 7-point concentration data, fold increase relative to vehicle control (SMN HTRF); for EC1.5x (concentration giving 1.5-fold Smn protein increase): SMA Type 1 patient fibroblast cells (GM03813), 7-point concentration curve, SMN HTRF, concentration producing 1.5 times Smn protein vs DMSO vehicle control, read-out: EC1.5x for Smn protein expression
In short: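 Lysates in RIPA with protease inhibitors are incubated overnight at room temperature with HTRF anti-SMN antibodies. EC1.5x is derived from fold increase in ΔF over vehicle.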

[2] = HEK293H cells stably transfected with SMN2-A minigene, 24 hours, 7-point concentration curve, 1.5-fold relative to vehicle-treated cells

SMILES	EC (1.5-fold) [1, 2] [µM]	maximum fold (Fold) increase of Smn protein (Smn protein)	melting point [°C]	EC1.5x (concentration giving 1.5-fold Smn protein increase) (Smn protein) [nM]	EC (1.5-fold) ([1]; 24 h) [µM]
O=c1oc2cc(N3CCNCC3)ccc2cc1-c1cn2cc(F)cc(F)c2n1 [Compound 532, 3-(6,8-difluoroimidazo[1,2-a]pyridin-2-yl)-7-(piperazin-1-yl)-2H-chromen-2-one]	0.3 to 1	* (maximum fold increase of ≤1.2)	276 to 286	–	–
Cc1cc2cc(-c3cc4ccc(N5CCN6CCC[C@H]6C5)cc4oc3=O)oc2c(C)n1 [Compound 745, 3-(5,7-dimethylfuro[2,3-c]pyridin-2-yl)-7-[(8aS)-hexahydropyrrolo[1,2-a]pyrazin-2(1H)-yl]-2H-chromen-2-one]	< 0.1	***** (fold increase >1.65)	203 to 205	< 300	–
Cc1ccc2nc(-c3cc4ccc(N5CC[C@H](NC(=O)OC(C)(C)C)C5)cc4oc3=O)cn2c1 [Compound 177, tert-butyl {(3S)-1-[3-(6-methylimidazo[1,2-a]pyridin-2-yl)-2-oxo-2H-chromen-7-yl]pyrrolidin-3-yl}carbamate]	3 to 30	* (maximum fold increase of ≤1.2)	225 to 230	–	–
CN1CCCN(c2cc(F)c3cc(-c4nc5c(F)cccc5o4)c(=O)oc3c2)CC1 [Compound 369, 5-fluoro-3-(4-fluoro-1,3-benzoxazol-2-yl)-7-(4-methyl-1,4-diazepan-1-yl)-2H-chromen-2-one]	0.1 to 0.3	** (fold increase between >1.2 and ≤1.35)	224 to 228	–	–
Cc1cn2cc(-c3cc4ccc(N5C[C@H]6CNC[C@H]6C5)cc4oc3=O)nc2c(C)n1 [Compound 686, 3-(6,8-dimethylimidazo[1,2-a]pyrazin-2-yl)-7-[(3aR,6aS)-hexahydropyrrolo[3,4-c]pyrrol-2(1H)-yl]-2H-chromen-2-one]	< 0.1	***** (fold increase >1.65)	250 to 260	< 300	–
Cc1cn2cc(-c3cc4ccc(CN(C)C)cc4oc3=O)nc2c(C)n1 [Cpd 846, 7-[(dimethylamino)methyl]-3-(6,8-dimethylimidazo[1,2-a]pyrazin-2-yl)-2H-chromen-2-one]	0.1 to 0.3	***** (fold increase >1.65)	192 to 196	300 to 1000	–
CCN(CCO)CCOc1ccc2cc(-c3cn4cc(C)nc(C)c4n3)c(=O)oc2c1 [Compound 938, 3-(6,8-dimethylimidazo[1,2-a]pyrazin-2-yl)-7-{2-[ethyl(2-hydroxyethyl)amino]ethoxy}-2H-chromen-2-one]	< 0.1	***** (fold increase >1.65)	165 to 168	< 300	–
C[C@H]1CN(c2ccc3cc(-c4cccc(Cl)c4)c(=O)oc3c2)CCN1 [Compound 509, 3-(3-chlorophenyl)-7-[(3S)-3-methylpiperazin-1-yl]-2H-chromen-2-one]	1 to 3	* (maximum fold increase of ≤1.2)	149 to 151	–	–
Cc1cn2cc(-c3cc4ccc(N5CCC(N(C)C)CC5)cc4oc3=O)cc2c(C)n1 [Compound 715, 7-[4-(dimethylamino)piperidin-1-yl]-3-(1,3-dimethylpyrrolo[1,2-a]pyrazin-7-yl)-2H-chromen-2-one]	< 0.1	** (fold increase between >1.2 and ≤1.35)	192 to 195	–	–
CN1CCN(c2ccc3cc(-c4ccn(C)n4)c(=O)oc3c2)CC1 [Compound 73, 7-(4-methylpiperazin-1-yl)-3-(1-methyl-1H-pyrazol-3-yl)-2H-chromen-2-one]	–	** (fold increase between >1.2 and ≤1.35)	183 to 186	–	3 to 30
